Tests used:
[1] = target: Phosphodiesterase 3 (Homo sapiens) (UniProt Q14432+Q13370); assay: Inhibition of human platelet Phosphodiesterase 3 at 20 uM
[2] = target: T1, Phosphodiesterase 4 (Homo sapiens, UniProt P27815+Q08499+Q07343+Q08493); assay: Inhibition of Phosphodiesterase 4 from human U937 cells; assay type: cell-based; conditions: u-937
[3] = target: T1, Phosphodiesterase 4; assay: Relative inhibition of PDE4 activity and rolipram binding; assay type: protein assay
[4] = target: Phosphodiesterase 4 (Rattus norvegicus, UniProt P14270+P14646+P14644+P54748); assay: Inhibition of rolipram binding to PDE4 in rat brain; assay type: tissue-based

| inhibition [1] [%] | IC50 [2] [nM] | Ratio [3] | IC50 [4] [nM] | Structure (SMILES) |
| --- | --- | --- | --- | --- |
| 38 | 700 | 16.3 | 43 | COc1ccc(C(=O)Nc2c(Cl)cncc2Cl)c2ccc(C#N)nc12 |
| 27 | 440 | 0.29 | 1500 | COc1ccc(C(=O)Nc2c(Cl)cncc2Cl)c2ccc(C(C)=O)nc12 |
| 21 | 88 | 1.19 | 74 | COc1ccc(C(=O)Nc2c(Cl)cncc2Cl)c2ccc(C)nc12 |
| 22 | 210 | 1.5 | 140 | CON=C(C)c1ccc2c(C(=O)Nc3c(Cl)cncc3Cl)ccc(OC)c2n1 |
| 12 | 210 | 1.31 | 160 | CCc1cnc2c(OC)ccc(C(=O)Nc3c(Cl)cncc3Cl)c2c1 |
| 35 | 43 | 0.57 | 75.3 | CCc1ccc2c(C(=O)Nc3c(Cl)cncc3Cl)ccc(OC)c2n1 |
| 15 | 51 | 0.66 | 77 | COc1ccc(C(=O)Nc2c(Cl)cncc2Cl)c2ccc(C(F)(F)F)nc12 |
| 30 | 180 | 0.22 | 790 | COc1ccc(C(=O)Nc2c(Cl)cncc2Cl)c2ccc(C(C)O)nc12 (stereo not drawn) |
| 10 |  |  |  | COc1ccc(C(=O)Nc2c(Cl)cncc2Cl)c2cccnc12 |

— ChEMBL document CHEMBL1135147, “8-Methoxyquinolines as PDE4 inhibitors” (Bioorg Med Chem Lett, 2002)
